Assay results taken from patent US20220089609A1, “SUBSTITUTED QUINAZOLINONE DERIVATIVES AND THEIR USE AS POSITIVE ALLOSTERIC MODULATORS OF MGLUR4” (DOMAIN THERAPEUTICS, priority 2018, published 2022).
Values joined by “and” are separate entries in the source; they are usually repeats but may differ in a detail not shown here. Equal entries are not always repeated. Structures can show the parent of a compound that is named as a salt.

Each molecule was assayed against T1, human mGluR4 (hmGluR4) (Homo sapiens, UniProt Q14833) (assay: Calcium assay EC50 determination, positive allosteric modulator activity on hmGluR4 transiently over-expressed in HEK-293 cells). Conditions: PAM mode with EC20 glutamate; hmGluR4 in HEK-293 cells; intracellular calcium (Fluo4AM); read-out: mGluR4 positive allosteric modulator activity, half maximal effective concentration (EC50).
T1 construct: expressed in transfected cells; host or cells: HEK-293 cells, transient co-transfection by electroporation
T1 sequence (Q14833 33-912): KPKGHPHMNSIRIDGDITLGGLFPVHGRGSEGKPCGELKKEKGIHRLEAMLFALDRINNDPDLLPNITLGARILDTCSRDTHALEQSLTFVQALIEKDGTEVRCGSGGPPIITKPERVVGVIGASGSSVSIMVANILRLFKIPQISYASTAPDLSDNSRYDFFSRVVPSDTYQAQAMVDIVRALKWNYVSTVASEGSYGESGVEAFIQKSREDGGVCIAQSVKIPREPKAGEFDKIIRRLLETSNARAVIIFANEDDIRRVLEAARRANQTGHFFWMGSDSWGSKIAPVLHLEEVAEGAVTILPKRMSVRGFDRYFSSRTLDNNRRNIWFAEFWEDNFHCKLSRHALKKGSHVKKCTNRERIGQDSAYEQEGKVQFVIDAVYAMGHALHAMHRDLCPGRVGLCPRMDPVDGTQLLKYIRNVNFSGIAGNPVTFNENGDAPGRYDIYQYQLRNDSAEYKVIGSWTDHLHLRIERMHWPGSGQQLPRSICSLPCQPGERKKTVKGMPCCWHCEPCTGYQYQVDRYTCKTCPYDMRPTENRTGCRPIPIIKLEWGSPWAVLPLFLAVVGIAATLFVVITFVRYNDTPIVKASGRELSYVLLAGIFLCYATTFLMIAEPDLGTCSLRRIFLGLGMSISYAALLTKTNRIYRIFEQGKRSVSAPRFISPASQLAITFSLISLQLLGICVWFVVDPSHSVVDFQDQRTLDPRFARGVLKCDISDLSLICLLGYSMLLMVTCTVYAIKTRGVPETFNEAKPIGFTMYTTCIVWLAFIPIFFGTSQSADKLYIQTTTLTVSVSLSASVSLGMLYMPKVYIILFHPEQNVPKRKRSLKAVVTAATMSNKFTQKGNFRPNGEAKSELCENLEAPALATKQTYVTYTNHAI
Format: cell-based
Experimental: Compounds are tested successively for their agonist and positive allosteric modulator activities on human mGluR4 (hmGluR4) transiently over-expressed in HEK-293 cells. Compounds exert agonist activity if, by themselves in absence of glutamate, they are able to activate hmGluR4; and they exert positive allosteric modulator activity if they increase the action of glutamate.
HEK-293 cells are maintained in Modified Eagle's Medium supplemented with 10% Foetal Calf Serum, 1% Penicillin/Streptomycin and 1% non-essential amino acids at 37° C./5% CO2.
Cells are co-transfected by electroporation with four DNA plasmids encoding hmGluR4, a chimeric G protein allowing redirection of the activation signal to intracellular calcium pathway, and glutamate transporters to decrease extracellular glutamate concentration so as to limit receptor desensitization. After transfection, cells are cultured for 24 h at 37° C./5% CO2.
Calcium Assay EC50 determination
Receptor activity is detected by changes in intracellular calcium measured using the fluorescent Ca^2+ sensitive dye, Fluo4AM (Molecular Probes).
On the day of the assay, culture medium is aspirated and replaced during 3 hours by medium without serum supplemented with 1% Glutamax, 1% Penicillin/Streptomycin and 1% non-essential amino acids. Then, cells are washed with freshly prepared buffer B (HBSS 1× (PAA), Hepes 20 mM, MgSO4-7H2O 1 mM, Na2CO3 3.3 mM, CaCl2-2H2O 1.3 mM, 0.1% BSA, Probenecid 2.5 mM) and loaded at 37° C. in 5% CO2 for 1.5 hours with buffer B containing 1 μM Fluo4AM, 0.1 mg/mL Pluronic Acid, 7 μg/mL Glutamate Pyruvate Transaminase and 2 mM sodium pyruvate. Afterwards cells are washed twice with buffer B. Then cells are detached using StemPro Accutase (Fisher Scientific), resuspended in buffer B and seeded in 384 well plate at a density of 30,000 cells per well. Addition of compounds and intracellular Ca^2+ measurements (excitation 485 nm, emission 525 nm) are performed by the fluorescence microplate reader FLIP^Tetra (Molecular Devices).
Agonist and positive allosteric modulator activities of compounds are consecutively evaluated on the same cell plate. Agonist activity is first tested during 10 minutes with the addition of compound alone on the cells. Then, cells are stimulated by an EC20 glutamate concentration and fluorescence is recorded for additional 3 minutes. EC20 glutamate concentration is the concentration giving 20% of the maximal glutamate response. Agonist or positive allosteric modulator activity(ies) are evaluated in comparison to basal signals evoked by buffer B or EC20 glutamate alone, respectively.

Which EC50 does the source give for `Cc1cc(OC2CCC(=O)N(C)C2)cc2c(=O)[nH]c(-c3cc4ccsc4cn3)nc12` (single isomer, unassigned) [Compound 81-E1, (R or S)-8-Methyl-6-((1-methyl-6-oxopiperidin-3-yl)oxy)-2-(thieno[2,3-c]pyridin-5-yl)quinazolin-4(3H)-one] here?
Its EC50 is no more than 100 nM.

For `CCC(=O)N1CC[C@H](Oc2cc(C)c3nc(-c4cc5ccsc5cn4)[nH]c(=O)c3c2)C1` (stereo in doubt) [Compound 82-R, R-8-Methyl-6-(1-propionyl-pyrrolidin-3-yloxy)-2-thieno[2,3-c]pyridin-5-yl-3H-quinazolin-4-one], which EC50 is on record?
Its EC50 is 100 to 1000 nM.

For `Cl.O=c1[nH]c(-c2cc3ccsc3cn2)nc2ccc(OCCCc3ccncc3)cc12` [Compound 4, hydrochloride], which EC50 is on record?
The EC50 was 100 to 1000 nM.

With `Cc1ccnc(-c2nc3ccc(OCCCc4ccncc4)cc3c(=O)[nH]2)c1` [Compound 11, 2-(4-methyl-2-pyridyl)-6-[3-(4-pyridyl)propoxy]-3H-quinazolin-4-one dihydrochloride] as the molecule, how does the EC50 read?
Its EC50 is 100 to 1000 nM.

With `Cc1cccc(-c2nc3ccc(OCCCc4ccncc4)cc3c(=O)[nH]2)n1` [Compound 12, 2-(6-methyl-2-pyridyl)-6-[3-(4-pyridyl)propoxy]-3H-quinazolin-4-one dihydrochloride] as the molecule, how does the EC50 read?
The EC50 was 100 to 1000 nM.

`Cc1cnc(-c2nc3ccc(OCCCc4ccncc4)cc3c(=O)[nH]2)cn1` [Compound 13, 2-(5-methylpyrazin-2-yl)-6-[3-(4-pyridyl)propoxy]-3H-quinazolin-4-one dihydrochloride] was tested. Which EC50 did it give?
The EC50 was 1000 to 10000 nM.

With `O=c1[nH]c(-c2cc(C(F)(F)F)c(Cl)cn2)nc2ccc(OCCCc3ccncc3)cc12` [Compound 14, 2-[5-chloro-4-(trifluoromethyl)-2-pyridyl]-6-[3-(4-pyridyl)propoxy]-3H-quinazolin-4-one hydrochloride] as the molecule, how does the EC50 read?
The EC50 was 1000 to 10000 nM.

For `O=c1[nH]c(-c2cc(Cl)ccn2)nc2ccc(OCCCc3ccncc3)cc12` [Compound 15, 2-(4-chloro-2-pyridyl)-6-[3-(4-pyridyl)propoxy]-3H-quinazolin-4-one hydrochloride], which EC50 is on record?
The EC50 was 100 to 1000 nM and < 1000 nM.

Which EC50 does the source give for `CCc1ccnc(-c2nc3ccc(OCCCc4ccncc4)cc3c(=O)[nH]2)c1` [Compound 16, 2-(4-ethyl-2-pyridyl)-6-[3-(4-pyridyl)propoxy]-3H-quinazolin-4-one dihydrochloride] here?
The EC50 was 1000 to 10000 nM.

For `O=c1[nH]c(-c2cccc(C(F)(F)F)n2)nc2ccc(OCCCc3ccncc3)cc12` [Compound 17, 6-[3-(4-pyridyl)propoxy]-2-[6-(trifluoromethyl)-2-pyridyl]-3H-quinazolin-4-one hydrochloride], which EC50 is on record?
Its EC50 is no more than 100 nM.

Which EC50 does the source give for `O=c1[nH]c(-c2cc(Br)ccn2)nc2ccc(OCCCc3ccncc3)cc12` [Compound 18, 2-(4-bromo-2-pyridyl)-6-[3-(4-pyridyl)propoxy]-3H-quinazolin-4-one] here?
Its EC50 is 100 to 1000 nM.

Which EC50 does the source give for `O=c1[nH]c(-c2cc(C3CC3)ccn2)nc2ccc(OCCCc3ccncc3)cc12` [Compound 19, 2-(4-cyclopropyl-2-pyridyl)-6-[3-(4-pyridyl)propoxy]-3H-quinazolin-4-one dihydrochioride] here?
The EC50 was 100 to 1000 nM.

`Cc1nc(-c2nc3ccc(OCCCc4ccncc4)cc3c(=O)[nH]2)co1` [Compound 22, 2-(2-Methyl-oxazol-4-yl)-6-(3-pyridin-4-yl-propoxy)-3H-quinazolin-4-one hydrochloride] was tested. Which EC50 did it give?
Its EC50 is 1000 to 10000 nM.

Which EC50 does the source give for `O=c1[nH]c(-c2cc3sccc3cn2)nc2ccc(OCCc3cccnc3)cc12` [Compound 23, 6-(2-Pyridin-3-yl-ethoxy)-2-thieno[3,2-c]pyridin-6-yl-3H-quinazolin-4-one hydrochloride] here?
Its EC50 is 100 to 1000 nM.

With `O=c1[nH]c(-c2cc3sccc3cn2)nc2ccc(OCc3ccc(Br)cc3)cc12` [Compound 24, 6-(4-Bromo-benzyloxy)-2-thieno[3,2-c]pyridin-6-yl-3H-quinazolin-4-one] as the molecule, how does the EC50 read?
The EC50 was greater than 10000 nM.

For `O=c1[nH]c(-c2cc3cccn3cn2)nc2ccc(OC3CN(c4ccncn4)C3)cc12` [Compound 27, 6-(1-Pyrimidin-4-yl-azetidin-3-yloxy)-2-pyrrolo[1,2-c]pyrimidin-3-yl-3H-quinazolin-4-one], which EC50 is on record?
The EC50 was greater than 10000 nM.

With `CCC(=O)N1CC(Oc2ccc3nc(-c4cc5ccsc5cn4)[nH]c(=O)c3c2)C1` [Compound 30, 6-(1-Propionyl-azetidin-3-yloxy)-2-thieno[2,3-c]pyridin-5-yl-3H-quinazolin-4-one] as the molecule, how does the EC50 read?
Its EC50 is 100 to 1000 nM.

For `CCC(=O)N1CCC(Oc2ccc3nc(-c4cc5sccc5cn4)[nH]c(=O)c3c2)CC1` [Compound 32, 6-(1-Propionyl-piperidin-4-yloxy)-2-thieno[3,2-c]pyridin-6-yl-3H-quinazolin-4-one], which EC50 is on record?
The EC50 was 100 to 1000 nM.

For `O=c1[nH]c(-c2cc3cccn3cn2)nc2ccc(OCCN3CCOCC3)cc12` [Compound 33, 6-(2-Morpholin-4-yl-ethoxy)-2-pyrrolo[1,2-c]pyrimidin-3-yl-3H-quinazolin-4-one hydrochloride], which EC50 is on record?
The EC50 was greater than 10000 nM.

How did the EC50 turn out when `CC(C)(C)OC(=O)N1CCC(Oc2ccc3nc(-c4ccccn4)[nH]c(=O)c3c2)CC1` [Compound 39, 4-(4-Oxo-2-pyridin-2-yl-3,4-dihydro-quinazolin-6-yloxy)-piperidine-1-carboxylic acid tert-butyl ester] was run?
Its EC50 is 1000 to 10000 nM.

Which EC50 does the source give for `CC(=O)N1CCC(Oc2ccc3nc(-c4ccccn4)[nH]c(=O)c3c2)CC1` [Compound 41, 6-(1-Acetyl-piperidin-4-yloxy)-2-pyridin-2-yl-3H-quinazolin-4-one] here?
The EC50 was greater than 10000 nM.

With `CC(=O)N1CCC(COc2ccc3nc(-c4cc(C(F)(F)F)ccn4)[nH]c(=O)c3c2)CC1` [Compound 44, 6-(1-Acetyl-piperidin-4-ylmethoxy)-2-(4-trifluoromethyl-pyridin-2-yl)-3H-quinazolin-4-one] as the molecule, how does the EC50 read?
Its EC50 is 100 to 1000 nM.

For `CC(=O)N1CCC(Oc2ccc3nc(-c4cc5ccsc5cn4)[nH]c(=O)c3c2)C1` (centres unmarked) [Compound 51, 6-(1-Acetyl-pyrrolidin-3-yloxy)-2-thieno[2,3-c]pyridin-5-yl-3H-quinazolin-4-one], which EC50 is on record?
The EC50 was 100 to 1000 nM.

Which EC50 does the source give for `CCC(=O)N1CCN(c2ccc3nc(-c4cc(C(F)(F)F)ccn4)[nH]c(=O)c3c2)CC1` [Compound 54, 6-(4-Propionyl-piperazin-1-yl)-2-(4-trifluoromethyl-pyridin-2-yl)-3H-quinazolin-4-one] here?
The EC50 was 1000 to 10000 nM.

How did the EC50 turn out when `CC(=O)N1CCC(c2ccc3nc(-c4cc5ccsc5cn4)[nH]c(=O)c3c2)CC1` [Compound 57, 6-(1-acetyl-piperidin-4-yl)-2-thieno[2,3-c]pyridin-5-yl-3H-quinazolin-4-one] was run?
Its EC50 is 100 to 1000 nM.

Same assay, conditions: up to 100 μM

How did the “PAM activity on mGluR4” value turn out when `Cl.O=c1[nH]c(-c2cccnc2)nc2ccc(OCCCc3ccncc3)cc12` [Compound 6, 2-Pyridin-3-yl-6-(3-pyridin-4-yl-propoxy)-3H-quinazolin-4-one hydrochloride] was run?
The value was “no PAM activity”.

For `Cl.O=c1[nH]c(-c2cccc(Cl)c2)nc2ccc(OCCCc3ccncc3)cc12` [Compound 20, 2-(3-chlorophenyl)-6-[3-(4-pyridyl)propoxy]-3H-quinazolin-4-one hydrochloride], which “PAM activity on mGluR4” value is on record?
The value was “no PAM activity”.

How did the “PAM activity on mGluR4” value turn out when `O=c1[nH]c(-c2cccc(C(F)(F)F)c2)nc2ccc(OCCCc3ccncc3)cc12` [Compound 21, 6-[3-(4-pyridyl)propoxy]-2-[3-(trifluoromethyl)phenyl]-3H-quinazolin-4-one hydrochloride] was run?
Its value is “no PAM activity”.

For `Cn1c(-c2cc3sccc3cn2)nc2ccc(OCCCc3ccncc3)cc2c1=O` [Compound 38, 3-Methyl-6-(3-pyridin-4-yl-propoxy)-2-thieno[3,2-c]pyridin-6-yl-quinazolin-4-one], which “PAM activity on mGluR4” value is on record?
Its value is “no PAM activity”.
